“Also recorded” adds a separate entry of the source.

Assay [1] has as its system rat tumor cell lines (ASML, 1AS, G, AT6.1, MTLN3, MTLY, NM081 and MT450). Kind of assay: Tumor cell proliferation, 3H-thymidine incorporation. As to conditions: 2.5 μM or 10 μM, 24 h, FIG. 4. The assay is classed as cell-based. As to the method:
Cells of the rat tumor cell line (Nestl et al., 2001, Cancer Research 61: 1569-1577) were cultivated in the presence of 1% DMSO (solvent control), 2.5 μM or 10 μM of the indolinone for 24 h. Tritiated thymidine was added to the medium during the last 4-6 h of incubation. The cells were harvested and the amount of radioactivity incorporated into the DNA was quantified.
The data are stated in percent relative to the proliferation of the cells treated only with DMSO (% relative to control; see FIG. 4)).
FIG. 4: Measurement of the (^3H)-thymidine incorporation (in %) into rat tumor cell lines (ASML, 1AS, G, AT6.1, MTLN3, MTLY, NM081 and MT450) as a function of the concentration of inhibitors employed. The inhibition of cell proliferation by MAE87, MAE106 and MAZ51 is dose-dependent.

The subject of a further assay is rat carcinoma cell lines. Kind of assay: Apoptosis in rat tumor cell lines, nucleosome ELISA. The assay is classed as cell-based. As to conditions: 2.5 μM or 10 μM, 24 h, FIG. 6. As to the method: Cells of the rat tumor cell line (Nestl et al., 2001, Cancer Research 61: 1569-1577) were cultivated in the presence of 1% DMSO (solvent control), 2.5 μM or 10 μM of the indolinone for 24 h. Apoptosis was quantified with the aid of anti-DNA peroxidase antibody. The amount of dye produced in the chromogenic reaction catalyzed by the peroxidase was measured by photometry at 405 nm and correlated with the amount of apoptosis-associated cytoplasmic mono- and oligonucleosomes. The data are stated in % apoptosis relative to the cells of the solvent control (% relative to control) (FIG. 6).
FIG. 6: Nucleosome ELISA test (Cell Death Detection ELISA). The extent of dead cells of the respective rat tumor cell line is depicted (apoptosis in %) in relation to the use of the inhibitors MAE87, MAE106 and MAZ51.
(In general: An ELISA detects its analyte on a solid surface through an enzyme-linked reagent.)

For the next assay, the target named is VEGFR-2 (Homo sapiens, UniProt P35968). In words: In vitro tyrosine kinase assay (ELISA, GST kinase, polyGlu,Tyr 4:1 acceptor). The class given is biochemical. As to conditions: read-out: inhibition (−) or stimulation (+) of kinase activity relative to the control; for inhibition at 1 µg/mL: inhibitor 1 μg/ml; for inhibition at 10 µg/mL: inhibitor 10 μg/ml. As to the method: (§1) The inhibition of various receptor tyrosine kinases in vitro by MAE87, MAE106 and MAZ51 was investigated. The inhibitors were investigated in 2 different concentrations (1 μg/ml and 10 μg/ml). The inhibition is stated in %. “+”=stimulation of kinase activity relative to the control,
(§2) “−”=inhibition of kinase activity relative to the control.
(§3) The activity of the RTK inhibitors were determined with the aid of an ELISA. In this assay, the corresponding kinases were employed as recombinant GST fusion proteins (glutathione S-transferase). Synthetic polyGlu, Tyr 4:1 is used as acceptor. The ability of different concentrations of the test substances to inhibit the RTK-mediated phosphorylation of the abovementioned acceptor was assessed. All the tests were carried out in duplicate.
(§4) ELISA plates were coated with 0.2 mg/ml of polyGlu, Tyr 4:1 in 100 mM bicarbonate buffer (pH 9.6) overnight. This solution was removed and the microtiter plates were washed twice with TBS buffer (10 mM Tris-HCl, pH 8.1, 100 mM NaCl) and then blocked with 5% BSA/TBS for 30 min. 50 μl of test substance (2 or 20 μg/ml in 10% DMSO), 25 μl of GST kinase in 4× kinase buffer (200 mM HEPES, 100 mM NaCl, 80 μM Na3VO4 and 0.04% BSA) were introduced. The reaction was started by adding 25 μl of 160 μM ATP (in 40 mM MnCl2) as substrate of the kinases. The final concentrations of the test compounds is thus 1 or 10 μg/ml in 5% DMSO. The GST fusion proteins were employed in the following concentrations. VEGFR-2 50 NG/well, VEGFR-3 300 ng/well, Tie2 300 ng/well, EGFR 50 ng/well, ErbB2 200 ng/well, IGF-1R 50 ng/well, FGFR1 200 ng/well. The reaction mixture was incubated at 30° C. for 90 min. The kinase reaction was stopped by adding 50 μl of 30 mM EDTA/well. The microtiter plates were washed twice with 0.05% Tween20/TBS. Anti-phosphotyrosine antibody (1:500) was added in 0.05% Tween20/TBS (with 0.5% BSA, 0.025% skimmed milk powder and 100 μM Na3VO4) and incubated at 37° C. for 1 h. The microtiter plates were washed three times with 0.05% Tween20/TBS. The HRP-conjugated detection autibody (1:1000) was added in 0.05% Tween20/TBS (with 0.5% BSA, 0.025% skimmed milk powder and 100 μM Na3VO4) and incubated at 37° C. for 1 h. The microtiter plates were washed three times with 0.05% Tween20/TBS. ABTS (2,2′-azino-di-(3-ethylbenz-thiazoline-6-sulfonate)) substrate (Roche Diagnostics GmbH, Mannheim) was added. The OD was determined at 405 nm using an ELISA reader.

The target of the next assay is VEGFR-3 (Homo sapiens, UniProt P35916). The assay is described as above. Particulars: read-out: inhibition (−) or stimulation (+) of kinase activity relative to the control; for inhibition at 1 µg/mL: inhibitor 1 μg/ml; for inhibition at 10 µg/mL: inhibitor 10 μg/ml. The assay is classed as biochemical. As to the method: as §1, §2, §3, §4
A further assay has as its target IGF1R (Homo sapiens, UniProt P08069). The description is as above. The assay is classed as biochemical. Particulars: read-out: inhibition (−) or stimulation (+) of kinase activity relative to the control; for inhibition at 1 µg/mL: inhibitor 1 μg/ml; for inhibition at 10 µg/mL: inhibitor 10 μg/ml. As to the method: as §1, §2, §3, §4
In a further assay the target is ErbB2 (Homo sapiens, UniProt P04626). Described as above. The class given is biochemical. Particulars: read-out: inhibition (−) or stimulation (+) of kinase activity relative to the control; for inhibition at 1 µg/mL: inhibitor 1 μg/ml; for inhibition at 10 µg/mL: inhibitor 10 μg/ml. As to the method:
as §1, §2, §3, §4

The next assay addresses Tie2 (Homo sapiens, UniProt Q02763). The assay is described as above. The assay is classed as biochemical. Particulars: read-out: inhibition (−) or stimulation (+) of kinase activity relative to the control; for inhibition at 1 µg/mL: inhibitor 1 μg/ml; for inhibition at 10 µg/mL: inhibitor 10 μg/ml. As to the method:
as §1, §2, §3, §4

The target in a further assay is FGFR1 (Homo sapiens, UniProt P11362). Described as above. The assay is classed as biochemical. Particulars: read-out: inhibition (−) or stimulation (+) of kinase activity relative to the control; for inhibition at 1 µg/mL: inhibitor 1 μg/ml; for inhibition at 10 µg/mL: inhibitor 10 μg/ml. As to the method:
as §1, §2, §3, §4

In the next assay the target is EGFR (Homo sapiens, UniProt P00533). The description is as above. The assay is classed as biochemical. Particulars: read-out: inhibition (−) or stimulation (+) of kinase activity relative to the control; for inhibition at 1 µg/mL: inhibitor 1 μg/ml; for inhibition at 10 µg/mL: inhibitor 10 μg/ml. As to the method:
as §1, §2, §3, §4

EGFR, sequence (P00533 25-1210): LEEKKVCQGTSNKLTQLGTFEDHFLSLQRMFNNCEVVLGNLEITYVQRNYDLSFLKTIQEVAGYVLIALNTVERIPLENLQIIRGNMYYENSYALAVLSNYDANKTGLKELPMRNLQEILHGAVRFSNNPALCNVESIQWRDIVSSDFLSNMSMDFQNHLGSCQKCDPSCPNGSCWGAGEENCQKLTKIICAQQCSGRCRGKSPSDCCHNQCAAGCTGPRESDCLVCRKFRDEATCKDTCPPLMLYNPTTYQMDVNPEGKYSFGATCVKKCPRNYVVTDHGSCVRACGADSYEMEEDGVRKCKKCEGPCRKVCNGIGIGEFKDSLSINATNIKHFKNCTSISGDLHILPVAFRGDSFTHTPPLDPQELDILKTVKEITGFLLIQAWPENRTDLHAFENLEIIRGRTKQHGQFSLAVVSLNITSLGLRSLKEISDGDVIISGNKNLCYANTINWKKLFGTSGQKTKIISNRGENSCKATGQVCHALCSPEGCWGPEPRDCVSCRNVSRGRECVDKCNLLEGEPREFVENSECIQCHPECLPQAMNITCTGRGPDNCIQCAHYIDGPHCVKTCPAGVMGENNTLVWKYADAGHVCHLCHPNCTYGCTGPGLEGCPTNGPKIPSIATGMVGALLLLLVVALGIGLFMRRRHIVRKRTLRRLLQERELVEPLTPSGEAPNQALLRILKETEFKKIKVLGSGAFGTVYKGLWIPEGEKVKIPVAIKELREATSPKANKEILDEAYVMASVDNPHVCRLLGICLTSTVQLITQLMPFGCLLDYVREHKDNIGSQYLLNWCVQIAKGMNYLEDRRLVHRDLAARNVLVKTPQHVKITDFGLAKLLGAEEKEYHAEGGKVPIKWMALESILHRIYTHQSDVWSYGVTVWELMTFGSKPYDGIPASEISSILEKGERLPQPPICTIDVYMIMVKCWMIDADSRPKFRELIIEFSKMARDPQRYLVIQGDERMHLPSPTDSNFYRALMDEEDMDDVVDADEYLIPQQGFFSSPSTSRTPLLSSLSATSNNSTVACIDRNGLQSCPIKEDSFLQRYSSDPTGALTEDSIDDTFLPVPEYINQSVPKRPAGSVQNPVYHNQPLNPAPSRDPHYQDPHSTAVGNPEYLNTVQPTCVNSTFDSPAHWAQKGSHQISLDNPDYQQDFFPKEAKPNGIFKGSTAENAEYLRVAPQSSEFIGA
Tie2, sequence (Q02763 23-1124): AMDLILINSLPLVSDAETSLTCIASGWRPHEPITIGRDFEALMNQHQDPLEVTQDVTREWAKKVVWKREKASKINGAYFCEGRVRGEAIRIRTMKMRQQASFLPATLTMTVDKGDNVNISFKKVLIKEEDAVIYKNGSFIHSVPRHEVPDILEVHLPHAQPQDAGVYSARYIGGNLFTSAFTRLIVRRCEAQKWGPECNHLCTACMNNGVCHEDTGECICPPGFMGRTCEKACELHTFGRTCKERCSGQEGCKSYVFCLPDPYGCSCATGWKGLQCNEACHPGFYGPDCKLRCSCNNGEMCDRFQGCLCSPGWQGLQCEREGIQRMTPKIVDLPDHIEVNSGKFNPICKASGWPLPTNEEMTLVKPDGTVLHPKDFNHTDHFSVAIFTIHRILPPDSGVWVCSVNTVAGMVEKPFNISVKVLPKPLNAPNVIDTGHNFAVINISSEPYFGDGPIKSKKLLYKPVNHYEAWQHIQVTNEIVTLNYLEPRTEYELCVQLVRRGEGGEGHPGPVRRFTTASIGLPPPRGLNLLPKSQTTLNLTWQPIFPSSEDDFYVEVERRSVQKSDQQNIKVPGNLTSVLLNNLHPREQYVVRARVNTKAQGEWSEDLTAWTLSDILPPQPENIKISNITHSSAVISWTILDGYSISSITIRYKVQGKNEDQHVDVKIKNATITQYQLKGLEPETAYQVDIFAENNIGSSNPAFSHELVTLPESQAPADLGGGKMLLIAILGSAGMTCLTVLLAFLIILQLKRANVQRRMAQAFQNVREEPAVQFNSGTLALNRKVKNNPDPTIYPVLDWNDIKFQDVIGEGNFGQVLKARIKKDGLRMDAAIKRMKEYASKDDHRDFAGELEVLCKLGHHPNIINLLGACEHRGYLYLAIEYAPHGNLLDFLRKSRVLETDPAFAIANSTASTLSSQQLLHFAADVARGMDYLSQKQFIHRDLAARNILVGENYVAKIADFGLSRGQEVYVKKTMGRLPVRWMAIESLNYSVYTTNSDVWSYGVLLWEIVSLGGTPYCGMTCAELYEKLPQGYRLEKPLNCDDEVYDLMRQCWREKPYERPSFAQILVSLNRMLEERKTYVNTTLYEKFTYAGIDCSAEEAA
VEGFR-2, sequence (P35968 20-1356): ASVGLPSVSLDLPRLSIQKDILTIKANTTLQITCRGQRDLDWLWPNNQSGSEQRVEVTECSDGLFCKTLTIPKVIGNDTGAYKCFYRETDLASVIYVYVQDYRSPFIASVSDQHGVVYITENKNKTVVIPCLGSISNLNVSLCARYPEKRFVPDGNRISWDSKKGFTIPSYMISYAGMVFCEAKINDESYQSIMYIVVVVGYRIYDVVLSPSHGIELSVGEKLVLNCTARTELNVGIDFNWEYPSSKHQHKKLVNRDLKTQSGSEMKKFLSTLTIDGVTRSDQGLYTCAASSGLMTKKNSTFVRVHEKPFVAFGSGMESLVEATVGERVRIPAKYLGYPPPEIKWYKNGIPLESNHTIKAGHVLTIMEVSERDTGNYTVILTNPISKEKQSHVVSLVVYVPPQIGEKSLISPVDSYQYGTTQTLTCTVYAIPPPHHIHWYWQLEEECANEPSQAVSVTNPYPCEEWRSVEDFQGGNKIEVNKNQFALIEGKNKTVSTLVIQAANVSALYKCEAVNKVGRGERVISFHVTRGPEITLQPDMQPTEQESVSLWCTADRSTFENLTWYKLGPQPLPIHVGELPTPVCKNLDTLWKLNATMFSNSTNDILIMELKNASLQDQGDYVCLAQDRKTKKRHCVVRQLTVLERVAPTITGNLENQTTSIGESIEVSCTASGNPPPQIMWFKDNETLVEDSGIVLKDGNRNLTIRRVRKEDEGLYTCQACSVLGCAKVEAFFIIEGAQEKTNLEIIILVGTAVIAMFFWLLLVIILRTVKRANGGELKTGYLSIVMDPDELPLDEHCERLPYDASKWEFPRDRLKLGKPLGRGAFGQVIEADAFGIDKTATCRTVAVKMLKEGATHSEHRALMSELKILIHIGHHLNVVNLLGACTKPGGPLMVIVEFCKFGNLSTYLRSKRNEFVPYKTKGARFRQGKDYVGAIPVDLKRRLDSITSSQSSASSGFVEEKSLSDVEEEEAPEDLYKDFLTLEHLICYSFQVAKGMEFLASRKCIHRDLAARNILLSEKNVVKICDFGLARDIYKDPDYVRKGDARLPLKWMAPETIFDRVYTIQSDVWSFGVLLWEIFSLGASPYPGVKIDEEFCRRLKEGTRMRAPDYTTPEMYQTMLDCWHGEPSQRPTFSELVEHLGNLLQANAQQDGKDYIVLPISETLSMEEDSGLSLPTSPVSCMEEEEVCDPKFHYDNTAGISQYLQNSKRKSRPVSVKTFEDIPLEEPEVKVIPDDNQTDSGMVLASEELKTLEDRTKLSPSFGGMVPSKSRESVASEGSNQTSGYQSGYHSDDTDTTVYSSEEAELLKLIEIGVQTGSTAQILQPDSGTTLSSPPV
ErbB2, sequence (P04626 23-1255): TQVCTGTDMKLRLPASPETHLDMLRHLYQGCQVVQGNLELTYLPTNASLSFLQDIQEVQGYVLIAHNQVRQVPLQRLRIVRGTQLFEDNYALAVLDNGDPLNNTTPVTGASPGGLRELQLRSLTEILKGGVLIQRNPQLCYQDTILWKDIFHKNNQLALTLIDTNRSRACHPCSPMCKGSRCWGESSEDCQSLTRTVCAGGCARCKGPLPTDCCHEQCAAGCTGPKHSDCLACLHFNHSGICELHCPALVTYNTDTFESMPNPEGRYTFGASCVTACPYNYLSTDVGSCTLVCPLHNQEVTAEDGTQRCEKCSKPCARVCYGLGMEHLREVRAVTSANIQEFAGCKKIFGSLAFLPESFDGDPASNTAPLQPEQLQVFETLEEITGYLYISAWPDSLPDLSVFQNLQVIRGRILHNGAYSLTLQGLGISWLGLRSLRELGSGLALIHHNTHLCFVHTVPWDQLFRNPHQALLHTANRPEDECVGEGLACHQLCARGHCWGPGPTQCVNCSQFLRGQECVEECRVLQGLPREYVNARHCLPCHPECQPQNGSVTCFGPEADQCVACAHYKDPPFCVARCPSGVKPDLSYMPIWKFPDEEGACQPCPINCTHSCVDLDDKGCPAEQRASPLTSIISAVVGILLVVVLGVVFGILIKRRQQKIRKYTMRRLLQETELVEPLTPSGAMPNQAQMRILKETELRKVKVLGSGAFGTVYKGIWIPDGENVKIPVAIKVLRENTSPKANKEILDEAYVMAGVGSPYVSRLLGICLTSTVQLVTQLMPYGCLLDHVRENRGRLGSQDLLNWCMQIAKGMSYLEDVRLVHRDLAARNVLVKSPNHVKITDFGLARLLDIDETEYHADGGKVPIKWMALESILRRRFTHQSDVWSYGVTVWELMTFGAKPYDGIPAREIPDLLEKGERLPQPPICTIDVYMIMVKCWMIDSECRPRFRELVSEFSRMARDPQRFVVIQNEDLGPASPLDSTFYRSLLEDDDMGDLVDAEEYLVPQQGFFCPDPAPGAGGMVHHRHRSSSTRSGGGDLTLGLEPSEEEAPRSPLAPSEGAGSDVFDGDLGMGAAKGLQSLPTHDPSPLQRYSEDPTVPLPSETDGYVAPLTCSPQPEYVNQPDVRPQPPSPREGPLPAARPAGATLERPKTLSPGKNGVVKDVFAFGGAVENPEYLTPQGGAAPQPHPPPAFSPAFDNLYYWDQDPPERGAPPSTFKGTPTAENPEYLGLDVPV

As for `O=C1Nc2ccccc2C1=Cc1ccc(O)cc1O` [MAE87, 3-(2,4-Dihydroxybenzylidene)-1,3-dihydroindol-2-one], in [1], the “inhibition of tumor cell proliferation (3H-thymidine incorporation, % relative to control)” value is “dose-dependent”. Moreover, in the assay with rat carcinoma cell lines, the “induction of apoptosis (% relative to solvent control)” value is listed as “induce cell death”. The inhibition – broadly, the change of the read-out against control, counted positive when it falls – at 1 µg/mL at VEGFR-2 was 46%; at VEGFR-3, 9%; on IGF1R, 63%; at ErbB2, 45%; on Tie2, -1%; on FGFR1, 50%. Besides, the inhibition at 1 µg/mL on EGFR is 70%. The inhibition at 10 µg/mL at VEGFR-2 was determined as 77%; on VEGFR-3, 74%; at IGF1R it was 94%; at ErbB2, 84%; at Tie2, 65%; at FGFR1, 94%. Further, the inhibition at 10 µg/mL on EGFR was found to be 86%.

Turning to `COc1ccc(C=C2C(=O)Nc3ccccc32)cc1F` [MAE106, 3-(3-Fluoro-4-methoxybenzylidene)-1,3-dihydroindole-2-one], the “inhibition of tumor cell proliferation (3H-thymidine incorporation, % relative to control)” value in assay [1] is listed as “dose-dependent”. For the same compound, in the assay with rat carcinoma cell lines, the “induction of apoptosis (% relative to solvent control)” value was “induce cell death”. The inhibition at 1 µg/mL on VEGFR-2 was -21%; on VEGFR-3, -1%; at IGF1R, 10%; on ErbB2, -4%; at Tie2, 5%; on FGFR1, -5%. Also, the inhibition at 1 µg/mL at EGFR is 5%. For the same compound, the inhibition at 10 µg/mL amounted to 58% on VEGFR-2; 57% on VEGFR-3; 71% on IGF1R; 41% at ErbB2; 28% on Tie2; 1% on FGFR1. Moreover, the inhibition at 10 µg/mL at EGFR came to 64%.

With `CN(C)c1ccc(C=C2C(=O)Nc3ccccc32)c2ccccc12` [MAZ51, 3-(4-Dimethylaminonaphthalen-1-ylmethylene)-1,3-dihydroindol-2-one], in assay [1], the “inhibition of tumor cell proliferation (3H-thymidine incorporation, % relative to control)” value is recorded as “greatest inhibitory effect; also recorded: dose-dependent”. Moreover, the “induction of apoptosis (% relative to solvent control)” value in the assay on rat carcinoma cell lines is “most potent apoptosis inducer; also recorded: induce cell death”. Besides, the inhibition at 1 µg/mL was 8% on VEGFR-2; 4% at VEGFR-3; 10% at IGF1R; 11% at ErbB2; 7% at Tie2; -1% at FGFR1. For the same compound, the inhibition at 1 µg/mL at EGFR came out at 25%. In addition, the inhibition at 10 µg/mL at VEGFR-2 turned out to be 74%; at VEGFR-3, 35%; at IGF1R, 68%; at ErbB2 it was 39%; on Tie2 it was 27%; on FGFR1, 5%. Also, the inhibition at 10 µg/mL at EGFR worked out at 58%.
